Results as given in US6677368B2, “4-aryl substituted indolinones” (Sugen, Inc., priority 2000, dated 2004).

Biological target: T1, FLK-1 (Mus musculus, UniProt P35918)
T1 construct: GST-Flklcd purified from sf9 recombinant baculovirus transfomnation (SUGEN, Inc.); host or cells: Sf9 insect cells, recombinant baculovirus
Assay: GST-FLK-1 bioassay (tyrosine kinase activity on poly(glu-tyr))
Type: biochemical
Settings: GST-Flk1, poly(glu-tyr) substrate, 0.5 μM ATP
Protocol: This assay analyzes the tyrosine kinase activity of GST-Flk1 on poly(glu-tyr) peptides.
1. Corning 96-well ELISA plates (Corning Catalog No. 25805-96).
2. poly(glu-tyr) 4:1, lyophilizate (Sigma Catalog No. P0275), 1 mg/ml in sterile PBS.
3. PBS Buffer: for 1 L, mix 0.2 g KH2PO4, 1.15 g Na2HPO4, 0.2 g KCl and 8 g NaCl in approx. 900 ml dH2O. When all reagents have dissolved, adjust the pH to 7.2 with HCl. Bring total volume to 1 L with dH2O.
4. PBST Buffer: to 1 L of PBS Buffer, add 1.0 ml Tween-20.
5. TBB—Blocking Buffer: for 1 L, mix 1.21 g TRIS, 8.77 g NaCl, 1 ml TWEEN-20 in approximately 900 ml dH2O. Adjust pH to 7.2 with HCl. Add 10 g BSA, stir to dissolve. Bring total volume to 1 L with dH2O. Filter to remove particulate matter.
6. 1% BSA in PBS: add 10 g BSA to approx. 990 ml PBS buffer, stir to dissolve. Adjust total volume to 1 L with PBS buffer, filter to remove particulate matter.
8. GST-Flklcd purified from sf9 recombinant baculovirus transfomnation (SUGEN, Inc.).
12. Kinase Dilution Buffer (KDB): mix 10 ml Hepes (pH 7.5), 1 ml 5M NaCl, 40 μL 100 mM sodium orthovanadate and 0.4 ml of 5% BSA in dH2O with 88.56 ml dH2O.
13. NUNC 96-well V bottom polypropylene plates, Applied Scientific Catalog #AS-72092
14. EDTA: mix 14.12 g ethylenediaminetetraacetic acid (EDTA) with approx. 70 ml dH2O. Add 10 N NaOH until EDTA dissolves. Adjust pH to 8.0. Adjust total volume to 100 ml with dH2O.
15. 1° and 2° Antibody Dilution Buffer: mix 10 ml of 5% BSA in PBS buffer with 89.5 ml TBST.
16. Anti-phosphotyrosine rabbit polyclonal antisera (SUGEN, Inc.)
17. Goat anti-rabbit HRP conjugate.
18. ABST solution: To approx. 900 ml dH2O add 19.21 g citric acid and 35.49 g Na2HPO4. Adjust pH to 4.0 with phosphoric acid. Add 2,2′-Azinobis(3-ethyl-benzthiazoline-6-sulfonic acid (ABTS, Sigma, Cat. No. A-1888, hold for approx. ½ hour, filter.
19. 30% Hydrogen Peroxide.
20. ABST/H2O2: add 3 μl of H2O2 to 15 ml of ABST solution.
1. Coat Corning 96-well ELISA plates with 2 μg of polyEY in 100 μl PBS/well, hold at room temperature for 2 hours or at […] overnight. Cover plates to prevent evaporation.
2. Remove unbound liquid from wells by inverting plate. Wash once with TBST. Pat the plate on a paper towel to remove excess liquid.
3. Add 100 μl of 1% BSA in PBS to each well. Incubate, with shaking, for 1 hr. at room temperature.
5. Soak wells with 50 mM HEPES (pH7.5, 150 μl/well).
6. Dilute test compound with dH2O/4% DMSO to 4 times the desired final assay concentration in 96-well polypropylene plates.
7. Add 25 μl diluted test compound to each well of ELISA plate. In control wells, place 25 μl of dH2O/4% DMSO.
8. Dilute GST-Flk1 0.005 μg (5 ng)/well in KDB.
9. Add 50 μl of diluted enzyme to each well.
10. Add 25 μl 0.5 M EDTA to negative control wells.
11. Add 25 μl of 40 mM MnCl2 with 4×ATP (2 μM) to all wells (100 μl final volume, 0.5 μM ATP final concentration in each well).
12. Incubate, with shaking, for 15 minutes at room temperature.
13. Stop reaction by adding 25 μl of 500 mM EDTA to each well.
14. Wash 3× with TBST and pat plate on paper towel to remove excess liquid.
15. Add 100 μl per well anti-phosphotyrosine antisera, 1:10,000 dilution in antibody dilution buffer. Incubate, with shaking, for 90 min. at room temperature.
17. Add 100 μl/well of goat anti-rabbit HRP conjugate (1:6,000 in antibody dilution buffer). Incubate, with shaking, for 90 minutes are room temperature.
19. Add 100 μl room temperature ABST/H2O2 solution to each well.
20. Incubate, with shaking for 15 to 30 minutes at room temperature.
21. If necessary, stop reaction by adding 100 μl of 0.2 M HCl to each well.
22. Read results on Dynatech MR7000 ELISA reader with test filter at 410 nM and reference filter at 630 nM.

T1 sequence (P35918 784-1345 limits assumed): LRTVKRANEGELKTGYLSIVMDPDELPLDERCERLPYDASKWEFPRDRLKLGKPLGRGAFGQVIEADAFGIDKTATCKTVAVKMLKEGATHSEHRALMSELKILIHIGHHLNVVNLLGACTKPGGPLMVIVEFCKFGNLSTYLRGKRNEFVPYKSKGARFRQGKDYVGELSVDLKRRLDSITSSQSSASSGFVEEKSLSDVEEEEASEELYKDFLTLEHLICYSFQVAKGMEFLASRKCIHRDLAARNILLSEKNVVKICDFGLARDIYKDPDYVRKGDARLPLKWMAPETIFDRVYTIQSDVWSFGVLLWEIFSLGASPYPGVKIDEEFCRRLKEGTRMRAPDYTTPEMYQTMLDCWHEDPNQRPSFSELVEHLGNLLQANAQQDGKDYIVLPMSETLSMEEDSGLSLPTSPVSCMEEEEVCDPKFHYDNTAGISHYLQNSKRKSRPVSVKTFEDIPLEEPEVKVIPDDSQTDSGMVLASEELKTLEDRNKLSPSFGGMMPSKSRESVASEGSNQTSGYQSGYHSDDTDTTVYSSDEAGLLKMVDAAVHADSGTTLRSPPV

| SMILES | IC50 [µM] |
| --- | --- |
| COc1ccc(-c2cccc3c2/C(=C/c2[nH]c(C)c(C(=O)N4C[C@@H](C)N[C@@H](C)C4)c2C)C(=O)N3)cc1 [Example 40, 3-[4-((cis)-3,5-Dimethyl-piperazine-1-carbonyl)-3,5-dimethyl-1H-pyrrol-2-ylmethylene]-4-(4-methoxy-phenyl)-1,3-dihydro-indol-2-one] | 0.041 |
| CCN(CC)CCNC(=O)c1c[nH]c(/C=C2\C(=O)Nc3cccc(-c4ccc(Br)cc4)c32)c1C [Example 61, 5-[4-(4-Bromo-phenyl)-2-oxo-1,2-dihydro-indol-3-ylidenemethyl]-4-methyl-1H-pyrrole-3-carboxylic Acid (2-Diethylamino-ethyl)-amide] | 0.006 |
| Cc1[nH]c(/C=C2\C(=O)Nc3cccc(-c4cccc(C(F)(F)F)c4)c32)c(C)c1C(=O)N1CCN(C)CC1 [Example 104, 3-[3,5-Dimethyl-4-(4-methyl-piperazine-1-carbonyl)-H-pyrrol-2-ylmethylene]-4-(3-trifluoromethyl-phenyl)-1,3-dihydro-indol-2-one] | 0.066 |
| CCN(CC)CCNC(=O)c1c(C)[nH]c(/C=C2\C(=O)Nc3cccc(-c4ccc(OC(F)(F)F)cc4)c32)c1C [Example 140, 2,4-Dimethyl-5-[2-oxo-4-(4-trifluoromethoxy-phenyl)-1,2-dihydro-indol-3-ylidenemethyl]-1H-pyrrole-3-carboxylic Acid (2-Diethylamino-ethyl)-amide] | 0.075 |
| Cc1cc(C(=O)N2C[C@@H](C)N[C@@H](C)C2)c(/C=C2\C(=O)Nc3cccc(-c4cccc(Cl)c4)c32)[nH]1 [Example 35, 4-(3-Chloro-phenyl)-3-[3-((cis)-3,5-dimethyl-piperazine-1-carbonyl)-5-methyl-1H-pyrrol-2-ylmethylene]-1,3-dihydro-indol-2-one] | 0.092 |
| Cc1[nH]c(/C=C2\C(=O)Nc3cccc(-c4ccccc4F)c32)c(C)c1C(=O)N1CCN(C)CC1 [Example 93, 3-[3,5-Dimethyl-4-(4-methyl-piperazine-1-carbonyl)-1H-pyrrol-2-ylmethylene]-4-(2-fluoro-phenyl)-1,3-dihydro-indol-2-one] | < 0.0091 |
| CCN(CC)CCNC(=O)c1c(C)[nH]c(/C=C2\C(=O)Nc3cccc(-c4cccc(OC)c4)c32)c1C [Example 46, 5-[4-(3-Methoxy-phenyl)-2-oxo-1,2-dihydro-indol-3-ylidenemethyl]-2,4-dimethyl-1H-pyrrole-3-carboxylic Acid (2-Diethylamino-ethyl)-amide] | 0.009 |
| Cc1[nH]c(/C=C2\C(=O)Nc3cccc(-c4ccc(Br)cc4)c32)c(C)c1C(=O)N1C[C@@H](C)N[C@@H](C)C1 [Example 57, 4-(4-Bromo-phenyl)-3-[4-[(cis)-3,5-dimethyl-piperazine-1-carbonyl)-3,5-dimethyl-1H-pyrrol-2-ylmethylene]-1,3-dihydro-indol-2-one] | 0.029 |
| Cc1[nH]c(/C=C2\C(=O)Nc3cccc(-c4ccc(F)cc4)c32)c(C)c1C(=O)N1CCN(C)CC1 [Example 4, 3-[3,5-Dimethyl-4-(4-methyl-piperazine-1-carbonyl)-1H-pyrrol-2-ylmethylene]-4-(4-fluoro-phenyl)-1,3-dihydro-indol-2-one] | 0.074 |
| COc1ccc(-c2cccc3c2/C(=C/c2[nH]c(C)cc2C(=O)NCCN2CCCC2)C(=O)N3)cc1 [Example 41, 2-[4-(4-Methoxy-phenyl)-2-oxo-1,2-dihydro-indol-3-ylidenemethyl]-5-methyl-1H-pyrrole-3-carboxylic Acid (2-Pyrrolidin-1-yl-ethyl)-amide] | 0.079 |
| Cc1cc(C(=O)N2CC[C@H](N(C)C)C2)c(/C=C2\C(=O)Nc3cccc(-c4ccc(F)cc4)c32)[nH]1 [Example 10, 3-[3-((S)-3-Dimethylamino-pyrrolidine-1-carbonyl)-5-methyl-1H-pyrrol-2-ylmethylene]-4-(4-fluoro-phenyl)-1,3-dihydro-indol-2-one] | 0.18 |
| Cc1[nH]c(/C=C2\C(=O)Nc3cccc(-c4ccc(Br)cc4)c32)c(C)c1C(=O)N1CCN(C)CC1 [Example 53] | 0.021 |
| Cc1cc(C(=O)N2C[C@@H](C)N[C@@H](C)C2)c(/C=C2\C(=O)Nc3cccc(-c4ccc(Cl)cc4)c32)[nH]1 [Example 27] | 0.17 |
| Cc1[nH]c(/C=C2\C(=O)Nc3cccc(-c4cccc(F)c4)c32)c(C)c1C(=O)NCCn1ccnn1 [Example 15, 5-[4-(3-Fluoro-phenyl)-2-oxo-1,2-dihydro-indol-3-ylidenemethyl]-2,4-dimethyl-1H-pyrrole-3-carboxylic Acid (2-[1,2,3]Triazol-1-yl-ethyl)-amide] | 0.032 |
| Cc1cc(C(=O)NCCN2CCCC2)c(/C=C2\C(=O)Nc3cccc(-c4ccc(F)c(Cl)c4)c32)[nH]1 [Example 119, 2-[4-(3-Chloro-4-fluoro-phenyl)-2-oxo-1,2-dihydro-indol-3-ylidenemethyl]-5-methyl-1H-pyrrole-3-carboxylic Acid (2-Pyrrolidin-1-yl-ethyl)-amide] | 0.18 |
| Cc1cc(C(=O)NCCn2ccnn2)c(/C=C2\C(=O)Nc3cccc(-c4cccc(Cl)c4)c32)[nH]1 [Example 34, 2-[4-(3-Chloro-phenyl)-2-oxo-1,2-dihydro-indol-3-ylidenemethyl]-5-methyl-1H-pyrrole-3-carboxylic Acid (2-[1,2,3]Triazol-1-yl-ethyl)-amide] | 1.06 |
| Cc1cc(C(=O)NCCN2CCCC2)c(/C=C2\C(=O)Nc3cccc(-c4ccc(Br)cc4)c32)[nH]1 [Example 58, 2-[4-(4-Bromo-phenyl)-2-oxo-1,2-dihydro-indol-3-ylidenemethyl]-5-methyl-1H-pyrrole-3-carboxylic Acid (2-Pyrrolidin-1-yl-ethyl)-amide] | 0.054 |
| COc1cccc(-c2cccc3c2/C(=C/c2[nH]c(C)c(C(=O)NCCn4ccnn4)c2C)C(=O)N3)c1 [Example 48, 5-[4-(3-Methoxy-phenyl)-2-oxo-1,2-dihydro-indol-3-ylidenemethyl]-2,4-dimethyl-1H-pyrrole-3-carboxylic Acid (2-[1,2,3]Triazol-1-yl-ethyl)-amide] | 0.012 |
| COc1cccc(-c2cccc3c2/C(=C/c2[nH]c(C)c(C(=O)NCCN(C(C)C)C(C)C)c2C)C(=O)N3)c1 [Example 52, 5-[4-(3-Methoxy-phenyl)-2-oxo-1,2-dihydro-indol-3-ylidenemethyl]-2,4-dimethyl-1H-pyrrole-3-carboxylic Acid (2-Diisopropylamino-ethyl)-amide] | 0.005 |
| Cc1cc(C(=O)NCCn2ccnn2)c(/C=C2\C(=O)Nc3cccc(-c4ccccc4F)c32)[nH]1 [Example 99, 2-[4-(2-Fluoro-phenyl)-2-oxo-1,2-dihydro-indol-3-ylidenemethyl]-5-methyl-1H-pyrrole-3-carboxylic Acid (2-[1,2,3]Triazol-1-yl-ethyl)-amide] | 0.17 |
| CCN(CC)CCNC(=O)c1c(C)[nH]c(/C=C2\C(=O)Nc3cccc(-c4ccccc4)c32)c1C [Example 3, 2,4-Dimethyl-5-(2-oxo-4-phenyl-1,2-dihydro-indol-3-ylidenemethyl)-1H-pyrrole-3-carboxylic Acid (2-Diethylamino-ethyl)-amide] | 0.009 |
